Tests used:
Assay in all cases: cells
Type in all cases: cell-based
CCRF-CEM = tested on: CCRF-CEM
HL-60(TB) = tested on: HL-60(TB)
K-562 = tested on: K-562
MOLT-4 = tested on: MOLT-4
RPMI-8226 = tested on: RPMI-8226
SR = tested on: SR
A549/ATCC = tested on: A549/ATCC
EKVX = tested on: EKVX
HOP-62 = tested on: HOP-62
NCI-H226 = tested on: NCI-H226
NCI-H322M = tested on: NCI-H322M
NCI-H460 = tested on: NCI-H460
NCI-H522 = tested on: NCI-H522
COLO-205 = tested on: COLO-205
HCC-2998 = tested on: HCC-2998
HCT-116 = tested on: HCT-116
HCT-15 = tested on: HCT-15
HT29 = tested on: HT29
KM12 = tested on: KM12
SW-620 = tested on: SW-620
SF-295 = tested on: SF-295
SF-539 = tested on: SF-539
SNB-19 = tested on: SNB-19
[1] = Homo sapiens, 5 doses, read-out: LC50 (the source's name)
[2] = Homo sapiens, read-out: growth inhibition % (GI%)

## O=C(CSc1nc2ccccc2c(=O)n1-c1ccc(Cl)cc1)NN=Cc1ccc(Oc2ccc(Cl)cc2)cc1 [6d, N'-(4–(4-chlorophenoxy)benzylidene)-2-((3–(4-chlorophenyl)-4-oxo-3,4-dihydroquinazolin-2-yl)thio)acetohydrazide]
CCRF-CEM; 5 doses
  TGI: 48.5 µM
CCRF-CEM; Homo sapiens
  GI50: 3.09 µM
CCRF-CEM; [1]
  CC50: > 100 µM
CCRF-CEM; [2]
  inhibition at 10 µM: > 100%
HL-60(TB); HL-60(TB), 5 doses
  TGI: 37.0 µM
HL-60(TB); Homo sapiens, HL-60
  GI50: 16 µM
HL-60(TB); Homo sapiens, HL-60, read-out: growth inhibition % (GI%)
  inhibition at 10 µM: < 15%
HL-60(TB); Homo sapiens, HL-60(TB), 5 doses, read-out: LC50 (the source's name)
  CC50: 85.7 µM
K-562; Homo sapiens, K562
  GI50: 4.15 µM
K-562; Homo sapiens, K562, read-out: growth inhibition % (GI%)
  inhibition at 10 µM: 77%
K-562; Homo sapiens, K562, K-562, 5 doses, read-out: LC50 (the source's name)
  CC50: > 100 µM
K-562; K-562, 5 doses
  TGI: 20.2 µM
MOLT-4; Homo sapiens, MOLT-4
  GI50: 2.29 µM
MOLT-4; Homo sapiens, MOLT-4, read-out: growth inhibition % (GI%)
  inhibition at 10 µM: > 100%
MOLT-4; Homo sapiens, MOLT-4, 5 doses, read-out: LC50 (the source's name)
  CC50: 44.7 µM
MOLT-4; MOLT-4, 5 doses
  TGI: 9.23 µM
RPMI-8226; Homo sapiens, RPMI-8226
  GI50: 2.98 µM
RPMI-8226; Homo sapiens, RPMI-8226, read-out: growth inhibition % (GI%)
  inhibition at 10 µM: 75.3%
RPMI-8226; Homo sapiens, RPMI-8226, 5 doses, read-out: LC50 (the source's name)
  CC50: > 100 µM
RPMI-8226; RPMI-8226, 5 doses
  TGI: 15.8 µM
SR; 5 doses
  TGI: 6.86 µM
SR; Homo sapiens
  GI50: 1.84 µM
SR; [1]
  CC50: 31.9 µM
SR; [2]
  inhibition at 10 µM: 67.1%
A549/ATCC; A549/ATCC, 5 doses
  TGI: 14.0 µM
A549/ATCC; Homo sapiens, A549
  GI50: 3.25 µM
A549/ATCC; Homo sapiens, A549, read-out: growth inhibition % (GI%)
  inhibition at 10 µM: 83.5%
A549/ATCC; Homo sapiens, A549/ATCC, 5 doses
  LC50 (lethal concentration, 50% cell kill): 83.3 µM
EKVX; 5 doses
  TGI: 13.9 µM
EKVX; Homo sapiens
  GI50: 3.1 µM
EKVX; Homo sapiens, 5 doses
  LC50: 63.6 µM
EKVX; [2]
  inhibition at 10 µM: 59.2%
HOP-62; HOP-62, 5 doses
  TGI: 4.05 µM
HOP-62; Homo sapiens, HOP-62
  GI50: 1.69 µM
HOP-62; Homo sapiens, HOP-62, read-out: growth inhibition % (GI%)
  inhibition at 10 µM: 67.4%
HOP-62; Homo sapiens, HOP-62, 5 doses, read-out: LC50 (the source's name)
  CC50: 9.69 µM
NCI-H226; Homo sapiens, NCI-H226
  GI50: 2.46 µM
NCI-H226; Homo sapiens, NCI-H226, read-out: growth inhibition % (GI%)
  inhibition at 10 µM: 24.4%
NCI-H226; Homo sapiens, NCI-H226, 5 doses
  LC50 (NCI-60 50% lethal concentration): 33.2 µM
NCI-H226; NCI-H226, 5 doses
  TGI: 6.59 µM
NCI-H322M; 5 doses
  TGI: 15.0 µM
NCI-H322M; Homo sapiens
  GI50: 3.02 µM
NCI-H322M; [1]
  CC50: 90.8 µM
NCI-H322M; [2]
  inhibition at 10 µM: < 15%
NCI-H460; Homo sapiens, NCI-H460
  GI50: 0.789 µM
NCI-H460; Homo sapiens, NCI-H460, read-out: growth inhibition % (GI%)
  inhibition at 10 µM: > 100%
NCI-H460; Homo sapiens, NCI-H460, 5 doses
  LC50 (concentration killing 50% of cells): 7.78 µM
NCI-H460; NCI-H460, 5 doses
  TGI: 2.6 µM
NCI-H522; Homo sapiens, NCI-H522
  GI50: 2.34 µM
NCI-H522; Homo sapiens, NCI-H522, read-out: growth inhibition % (GI%)
  inhibition at 10 µM: 79.3%
NCI-H522; Homo sapiens, NCI-H522, 5 doses, read-out: LC50 (the source's name)
  CC50: 42.6 µM
NCI-H522; NCI-H522, 5 doses
  TGI: 8.31 µM
COLO-205; COLO 205, 5 doses
  TGI: 8.74 µM
COLO-205; Homo sapiens, COLO 205
  GI50: 2.79 µM
COLO-205; Homo sapiens, COLO 205, read-out: growth inhibition % (GI%)
  inhibition at 10 µM: 85.4%
COLO-205; Homo sapiens, COLO 205, 5 doses
  LC50: 91.6 µM
HCC-2998; HCC-2998, 5 doses
  TGI: 3.81 µM
HCC-2998; Homo sapiens, HCC 2998
  GI50: 1.92 µM
HCC-2998; Homo sapiens, HCC 2998, read-out: growth inhibition % (GI%)
  inhibition at 10 µM: 79.7%
HCC-2998; Homo sapiens, HCC-2998, 5 doses
  LC50 (lethal concentration 50%): 7.57 µM
HCT-116; HCT-116, 5 doses
  TGI: 3.74 µM
HCT-116; Homo sapiens, HCT-116
  GI50: 1.55 µM
HCT-116; Homo sapiens, HCT-116, read-out: growth inhibition % (GI%)
  inhibition at 10 µM: > 100%
HCT-116; Homo sapiens, HCT-116, 5 doses, read-out: LC50 (the source's name)
  CC50: 9.03 µM
HCT-15; HCT-15, 5 doses
  TGI: 7.48 µM
HCT-15; Homo sapiens, HCT-15
  GI50: 2.41 µM
HCT-15; Homo sapiens, HCT-15, read-out: growth inhibition % (GI%)
  inhibition at 10 µM: 89.6%
HCT-15; Homo sapiens, HCT-15, 5 doses
  LC50 (concentration causing 50% net cell kill): 28.5 µM
HT29; HT29, 5 doses
  TGI: 11.1 µM
HT29; Homo sapiens, HT-29
  GI50: 2.14 µM
HT29; Homo sapiens, HT-29, read-out: growth inhibition % (GI%)
  inhibition at 10 µM: 98.2%
HT29; Homo sapiens, HT-29, HT29, 5 doses
  LC50 (concentration giving 50% net cell kill): > 100 µM
KM12; Homo sapiens, KM12
  GI50: 2.04 µM
KM12; Homo sapiens, KM12, read-out: growth inhibition % (GI%)
  inhibition at 10 µM: 82.6%
KM12; Homo sapiens, KM12, 5 doses, read-out: LC50 (the source's name)
  CC50: 26.6 µM
KM12; KM12, 5 doses
  TGI: 5.0 µM
SW-620; Homo sapiens, SW-620
  GI50: 1.81 µM
SW-620; Homo sapiens, SW-620, read-out: growth inhibition % (GI%)
  inhibition at 10 µM: 97.4%
SW-620; Homo sapiens, SW-620, 5 doses, read-out: LC50 (the source's name)
  CC50: 42.4 µM
SW-620; SW-620, 5 doses
  TGI: 7.84 µM
SF-295; Homo sapiens, SF-295
  GI50: 3.61 µM
SF-295; Homo sapiens, SF-295, read-out: growth inhibition % (GI%)
  inhibition at 10 µM: 35.3%
SF-295; Homo sapiens, SF-295, 5 doses, read-out: LC50 (the source's name)
  CC50: 36.4 µM
SF-295; SF-295, 5 doses
  TGI: 13.3 µM
SF-539; Homo sapiens, SF-539
  GI50: 2.54 µM
SF-539; Homo sapiens, SF-539, read-out: growth inhibition % (GI%)
  inhibition at 10 µM: 30.3%
SF-539; Homo sapiens, SF-539, 5 doses, read-out: LC50 (the source's name)
  CC50: 21.5 µM
SF-539; SF-539, 5 doses
  TGI: 6.32 µM
SNB-19; Homo sapiens, SNB-19
  GI50: 3.36 µM
SNB-19; Homo sapiens, SNB-19, read-out: growth inhibition % (GI%)
  inhibition at 10 µM: 71.5%
SNB-19; Homo sapiens, SNB-19, 5 doses, read-out: LC50 (the source's name)
  CC50: 53.2 µM
SNB-19; SNB-19, 5 doses
  TGI: 12.7 µM
